From PMC6344527, “Toxicity and possible mechanisms of action of honokiol from Magnolia denudata seeds against four mosquito species” (Scientific Reports, 2019)
In brackets after ≈: the same amount, converted by molar mass. Read-outs that look alike come from different tables or passages of the source.

Experiments:
[1] = system: larval Ae. aegypti; set-up: method as in PMID 23676010; details: cited from earlier work
[2] = system: third-instar larvae of insecticide-susceptible Culex pipiens pallens; assay: contact mortality bioassay, 24 h exposure; type: in vivo; details: 24 h exposure; for LC50: Culex pipiens, 24 h
Description: (§1) A contact mortality bioassay[25] was used to evaluate the toxicity of all compounds against third-instar larvae of the four mosquito species. Each test compound in methanol was suspended in DW with Triton X-100 (20 µL/L). Groups of 20 mosquito larvae were separately placed into paper cups (270 mL) containing each compound solution (250 mL). […] Negative controls consisted of a methanol–Triton X-100 solution in DW.
(§2) Treated and control (methanol–Triton X-100 solution only) larvae were maintained under the same conditions as those used for colony maintenance without providing food. Larval mortalities were determined 24 h post-treatment. […] All treatments were performed three times using 20 larvae per replicate.
(§3) The concentration of the test compounds required to produce 50% AChE inhibitory activity (IC50) was determined using the SAS 9.13 program (Cary: SAS Institute; 2014). Concentration-mortality data were subjected to probit analysis using the SAS 9.13 program. […] Statistical analyses were performed using the SAS 9.13 program. Multiple linear regression and correlation analysis were performed using the SPSS 24 program (Armonk: IBM Corp.; 2016).

[3] = system: third-instar larvae of insecticide-susceptible Aedes aegypti; assay: contact mortality bioassay, 24 h exposure; type: in vivo; details: 24 h exposure; for LC50: Aedes aegypti, 24 h
Description: as §1, §2, §3

[4] = target: acetylcholinesterase (AChE) from third-instar Ae. aegypti larvae (Aedes aegypti, UniProt A4GND7); assay: acetylcholinesterase inhibition assay; type: biochemical; details: based on IC50 values
Description: The in vitro AChE inhibitory activity of the test compounds was assessed according to the method of Perumalsamy et al.[42]. Third-instar Ae. aegypti larvae were used in all experiments. Whole bodies of 50 larvae were homogenized in 1 mL of ice-cold 0.1 M phosphate buffer (pH 8.0) using a glass tissue homogenizer. After filtering through cheesecloth, the homogenate was centrifuged at 1,000 × g at 4 °C for 5 min. The supernatant was used directly as the enzyme source for AChE. The protein levels were determined using the Bradford Protein Assay Kit (Bio-Rad Laboratories, Hercules, CA, USA) using BSA as the standard. The reaction mixture consisted of 50 µL of the crude enzyme preparation (4.3–4.8 µg protein equivalents), 150 µL of 0.1 M phosphate buffer, 20 µL of 3 mM DTNB in phosphate buffer (pH 7.0), and 1 µL of various concentrations of each test compound in ethanol. The reaction mixture was incubated at 30 °C for 5 min, and 20 µL of 32 mM ATChI was then added to the mixture. After incubation for 30 min, the reaction was terminated by adding 20 µL of 5 mM eserine salicylate. Absorbance was recorded at 412 nm using a VersaMax microplate reader (Molecular Devices, Sunnyvale, CA, USA). […] The results are expressed as the means ± standard errors (SEs) of triplicate samples from three independent experiments.
as §3

[5] = system: Larvae of An. sinensis; set-up: method as in PMID 26085316; details: An. sinensis larvae compared with Ae. aegypti larvae; cited from earlier work
[6] = system: third-instar larvae of insecticide-resistant Anopheles sinensis; assay: contact mortality bioassay, 24 h exposure; type: in vivo
Description: as §1, §2, §3

[7] = system: third-instar larvae of insecticide-susceptible Aedes albopictus; assay: contact mortality bioassay, 24 h exposure; type: in vivo
Description: as §1, §2, §3

[8] = system: AaV-type H^+-ATPase; set-up: method as in PMID 24260359; details: larval Ae. aegypti; cited from earlier work
[9] = system: AaAQP4; set-up: method as in PMID 24260359; details: larval Ae. aegypti anal gills; cited from earlier work

Sequence of acetylcholinesterase (AChE) from third-instar Ae. aegypti larvae (A4GND7 37-679): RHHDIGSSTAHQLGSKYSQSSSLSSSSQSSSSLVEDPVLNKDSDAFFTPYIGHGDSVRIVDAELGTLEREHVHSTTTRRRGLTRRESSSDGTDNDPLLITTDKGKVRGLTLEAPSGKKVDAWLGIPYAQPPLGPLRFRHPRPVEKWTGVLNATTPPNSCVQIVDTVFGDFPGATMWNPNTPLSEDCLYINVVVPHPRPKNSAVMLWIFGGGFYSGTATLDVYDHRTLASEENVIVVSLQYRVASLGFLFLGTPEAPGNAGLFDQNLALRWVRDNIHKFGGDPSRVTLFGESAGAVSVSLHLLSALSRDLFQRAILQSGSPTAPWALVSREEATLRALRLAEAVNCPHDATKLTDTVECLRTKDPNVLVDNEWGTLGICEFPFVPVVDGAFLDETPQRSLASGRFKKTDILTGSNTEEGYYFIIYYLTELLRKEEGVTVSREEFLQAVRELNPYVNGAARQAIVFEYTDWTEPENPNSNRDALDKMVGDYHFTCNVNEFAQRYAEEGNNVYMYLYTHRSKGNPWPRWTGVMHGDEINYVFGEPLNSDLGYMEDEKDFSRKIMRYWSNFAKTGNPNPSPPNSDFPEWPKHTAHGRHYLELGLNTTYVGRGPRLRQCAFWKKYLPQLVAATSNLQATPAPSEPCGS

In the case of `Oc1ccccc1` [Phenol], the LC50 [1] is given as 194 µg/mL (≈ 2060 µM), the LC50 ([2]; Table 6, structure-activity series, read-out: LC50 (mg/L) (95% CI)) is given as 41.7 mg/L (≈ 443 µM) and the “LC90 (mg/L) (95% CI)” value ([2]; Table 6, structure-activity series) is given as 185.1 (133.5–306.6) mg/L. The LC50 ([3]; Table 7, structure-activity series, read-out: LC50 (mg/L) (95% CI)) was 43.2 mg/L (≈ 459 µM), the “LC90 (mg/L) (95% CI)” value ([3]; Table 7, structure-activity series) was 207.1 (145.1–363.6) mg/L and the “AChE inhibitory activity (in words)” value [4] was “lowest of all of the compounds that were examined”.
In the case of `COP(=S)(OC)Oc1ccc(Sc2ccc(OP(=S)(OC)OC)cc2)cc1` [Temephos, temephos, reference compound], the “relative susceptibility ratio (RSR)” value [5] is listed as 29, the LC50 ([6]; Anopheles sinensis, 24 h, read-out: LC50 (mg/L) (95% CI)) is listed as 0.4 mg/L (≈ 0.857 µM) and the “LC90 (mg/L) (95% CI)” value ([6]; Table 5, larvae resistant to deltamethrin and temephos, 24 h exposure) is listed as 1.39 (1.05–2.13) mg/L. For the same compound, the “Slope ± SE” value ([6]; probit slope, Table 5, larvae resistant to deltamethrin and temephos, 24 h exposure) was 2.2 ± 0.15, the LC50 ([7]; Aedes albopictus, 24 h, read-out: LC50 (mg/L) (95% CI)) was 0.0132 mg/L (≈ 0.0283 µM) and the “LC90 (mg/L) (95% CI)” value ([7]; Table 4, 24 h exposure) was 0.0778 (0.0547–0.1343) mg/L. For the same compound, the “Slope ± SE” value ([7]; probit slope, Table 4, 24 h exposure) was 1.6 ± 0.21, the LC50 ([2]; read-out: LC50 (mg/L) (95% CI), Table 2, KS-CP strain) was 0.0162 mg/L (≈ 0.0347 µM) and the “LC90 (mg/L) (95% CI)” value ([2]; Table 2, KS-CP strain) was 0.0749 (0.0551–0.1177) mg/L. The LC50 ([3]; read-out: LC50 (mg/L) (95% CI), Table 3) was 0.0125 mg/L (≈ 0.0268 µM) and the “LC90 (mg/L) (95% CI)” value ([3]; Table 3) was 0.0658 (0.0479–0.1059) mg/L.
In the case of `Cc1ccc(C(C)C)cc1O` [carvacrol], the LC50 [1] is given as 69 µg/mL (≈ 459 µM).
In the case of `CC1(C)[C@H](C(=O)O[C@H](C#N)c2cccc(Oc3ccccc3)c2)[C@@H]1C=C(Br)Br` [deltamethrin], the “relative susceptibility ratio (RSR)” value [5] is listed as 611.
For `COP(=S)(OC)Oc1ccc(SC)c(C)c1` [fenthion], the “relative susceptibility ratio (RSR)” value [5] is listed as 11.
For `CCCCC/C=C/C=C/C(=O)NCC(C)C` [pellitorine], the “expression levels of the gene encoding AaV-type H^+-ATPase” value [8] is given as “slight decreases” and the AaAQP4 expression levels [9] is given as “inhibited the AaAQP4 expression levels”.
